System: MV4:11 human cancer cell lines
Assay: Cellular viability / anti-proliferative activity, CellTiter-Glo, 5 day protocol
Assay type: cell-based
Conditions: Homo sapiens, MV4-11, 120 h, MV4:11 cells; 5 day incubation; CellTiter-Glo; mean of minimum two replicates; read-out: GI50 on cellular proliferation of MV4:11 human cancer cell lines
Method in brief: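 Compounds were tested over 22 two-fold dilutions starting at 30 μM in 0.3% DMSO, with 200 cells per well (7200 cells/mL). Viability was measured by CellTiter-Glo luminescence at day 5.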

Row | SMILES | GI50
1 | COc1cc(CN2CCc3c(OC4CCC4)cc(Cn4ccn(C)c4=N)cc3C2=O)cc(OC)c1 [Example 69, 5-Cyclobutoxy-2-(3,5-dimethoxybenzyl)-7-((2-imino-3-methyl-2,3-dihydro-1H-imidazol-1-yl)methyl)-3,4-dihydroisoquinolin-1(2H)-one] | 502 nM
2 | CCn1cc(-c2cc(Cn3ccnc3)cc3c2CCN([C@@H](C)c2cc(OC)ccn2)C3=O)c(C(F)(F)F)n1 [Example 160, (S)-7-((1H-Imidazol-1-yl)methyl)-5-(1-ethyl-3-(trifluoromethyl)-1H-pyrazol-4-yl)-2-(1-(4-methoxypyridin-2-yl)ethyl)-3,4-dihydroisoquinolin-1(2H)-one] | < 50 nM
3 | CCn1cc(CN2CCc3c(cc(Cn4ccnc4C)cc3-c3cn(CC)nc3C(F)(F)F)C2=O)nn1 [Example 15, 2-((1-Ethyl-1H-1,2,3-triazol-4-yl)methyl)-5-(1-ethyl-3-(trifluoromethyl)-1H-pyrazol-4-yl)-7-((2-methyl-1H-imidazol-1-yl)methyl)-3,4-dihydroisoquinolin-1(2H)-one] | 76 nM
4 | COc1cc(CN2CCc3c(cc(Cn4cnn(C)c4=N)cc3-c3ccc(F)cc3C)C2=O)cc(OC)c1 [Example 121, 2-(3,5-Dimethoxybenzyl)-5-(4-fluoro-2-methylphenyl)-7-((5-imino-1-methyl-1,5-dihydro-4H-1,2,4-triazol-4-yl)methyl)-3,4-dihydroisoquinolin-1(2H)-one] | 134 nM
5 | Cc1ccc2[nH]ncc2c1-c1cc(CN2CCc3c(cc(Cn4ccnc4C)cc3-c3cn(C)nc3C(F)(F)F)C2=O)cc(OC(F)(F)F)c1 [Example 220, 7-((2-Methyl-1H-imidazol-1-yl)methyl)-2-(3-(5-methyl-1H-indazol-4-yl)-5-(trifluoromethoxy)benzyl)-5-(1-methyl-3-(trifluoromethyl)-1H-pyrazol-4-yl)-3,4-dihydroisoquinolin-1(2H)-one] | 1940 nM

Now from value to compound:

Row | GI50 | SMILES
6 | < 50 nM | CCn1cc(-c2cc(Cn3ccnc3)cc3c2CCN([C@H](c2cc(OC)ccn2)C2CC2)C3=O)c(C(F)(F)F)n1 [Example 212, (S)-7-((1H-Imidazol-1-yl)methyl)-2-(cyclopropyl(4-methoxypyridin-2-yl)methyl)-5-(1-ethyl-3-(trifluoromethyl)-1H-pyrazol-4-yl)-3,4-dihydroisoquinolin-1(2H)-one]
7 | 199 nM | Cc1cnnc(CN2CCc3c(cc(Cn4ccnc4C)cc3-c3cn(C)nc3C(F)(F)F)C2=O)c1 [Example 232, 7-((2-Methyl-1H-imidazol-1-yl)methyl)-5-(1-methyl-3-(trifluoromethyl)-1H-pyrazol-4-yl)-2-((5-methylpyridazin-3-yl)methyl)-3,4-dihydroisoquinolin-1(2H)-one]
8 | 215 nM | Cc1cc([C@H](C2CC2)N2CCc3c(cc(Cn4ccn(C)c4=N)cc3-c3cccnc3C(F)(F)F)C2=O)ccc1F [Example 34, (S)-2-(Cyclopropyl(4-fluoro-3-methylphenyl)methyl)-7-((2-imino-3-methyl-2,3-dihydro-1H-imidazol-1-yl)methyl)-5-(2-(trifluoromethyl)pyridin-3-yl)-3,4-dihydroisoquinolin-1(2H)-one]
9 | < 50 nM | COc1ccnc(CN2CCc3c(cc(Cn4ccn(C(F)F)c4=N)cc3-c3cn(C)nc3C(F)(F)F)C2=O)c1 [Example 61, 7-((3-(Difluoromethyl)-2-imino-2,3-dihydro-1H-imidazol-1-yl)methyl)-2-((4-methoxypyridin-2-yl)methyl)-5-(1-methyl-3-(trifluoromethyl)-1H-pyrazol-4-yl)-3,4-dihydroisoquinolin-1(2H)-one]
10 | < 50 nM | CCn1cc(-c2cc(Cn3ccnc3)cc3c2CCN([C@H](c2cc(C)ccn2)C2CC2)C3=O)c(C(F)(F)F)n1 [Example 245, (S)-7-((1H-imidazol-1-yl)methyl)-2-(cyclopropyl(4-methylpyridin-2-yl)methyl)-5-(1-ethyl-3-(trifluoromethyl)-1H-pyrazol-4-yl)-3,4-dihydroisoquinolin-1(2H)-one]

From patent US11999716B2, “WDR5 inhibitors and modulators” (priority 2018, dated 2024)
